According to the supplement of paper PMC13207355:

Assays:
Details in all cases: exposure time: 72 h
E57 [1] = patient-derived glioblastoma stem cells of mesenchymal subtype; test: surviving fraction (nuclei count normalised to DMSO); higher = more cells surviving (less toxic)
E34 [2] = patient-derived glioblastoma stem cells of proneural subtype; test: as above
E21 [3] = patient-derived glioblastoma stem cells of mesenchymal subtype; test: as above
E13 [4] = patient-derived glioblastoma stem cells of classical subtype; test: as above
E28 [5] = patient-derived glioblastoma stem cells of classical subtype; test: as above
E31 [6] = patient-derived glioblastoma stem cells of proneural subtype; test: as above
FT3469 [7] = normal neural stem cell line; test: as above
E57 [8] = test: phenotypic distance (Euclidean, principal components) from DMSO controls (arbitrary units); higher = stronger morphological change
E34 [9] = test: as above
E21 [10] = test: as above
E13 [11] = test: as above
E28 [12] = test: as above
E31 [13] = test: as above
FT3469 [14] = test: as above
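Throughout, for phenotypic distance (Euclidean, principal components) from DMSO controls: cell Painting imaging in 384-well plates, CellProfiler features reduced to at least 20 principal components, Euclidean distance versus same-plate DMSO vehicle wells (0.1% v/v), median over six images per well.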
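Throughout, for surviving fraction (nuclei count normalised to DMSO): nuclei counted by high-content imaging of Hoechst-stained cells in laminin-coated 384-well plates, relative to 0.1% DMSO vehicle wells, with staurosporine as cell-death control.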

CC(=O)CC(c1ccc([N+](=O)[O-])cc1)c1c(O)c2ccccc2oc1=O (stereo unspecified) [Acenocoumarol]
Details | phenotypic distance | surviving fraction
E13 [4], 4.1 nM | – | 0.91
E13 [4], 12.3 nM | – | 1.04
E13 [4], 37 nM | – | 1.05
E13 [4], 111.1 nM | – | 1.03
E13 [4], 333.3 nM | – | 0.873
E13 [4], 1000 nM | – | 0.931
E13 [4], 3000 nM | – | 0.767
E13 [11], 4.1 nM | 0.426 | –
E13 [11], 12.3 nM | 0.665 | –
E13 [11], 37 nM | 2.8 | –
E13 [11], 111.1 nM | 0.663 | –
E13 [11], 333.3 nM | 0.594 | –
E13 [11], 1000 nM | 0.586 | –
E13 [11], 3000 nM | 0.934 | –
E21 [3], 4.1 nM | – | 0.926
E21 [3], 12.3 nM | – | 1.09
E21 [3], 37 nM | – | 0.897
E21 [3], 111.1 nM | – | 0.931
E21 [3], 333.3 nM | – | 0.865
E21 [3], 1000 nM | – | 0.954
E21 [3], 3000 nM | – | 0.852
E21 [10], 4.1 nM | 1.01 | –
E21 [10], 12.3 nM | 0.655 | –
E21 [10], 37 nM | 0.963 | –
E21 [10], 111.1 nM | 0.772 | –
E21 [10], 333.3 nM | 0.946 | –
E21 [10], 1000 nM | 0.684 | –
E21 [10], 3000 nM | 1.11 | –
E28 [5], 4.1 nM | – | 0.905
E28 [5], 12.3 nM | – | 0.999
E28 [5], 37 nM | – | 0.918
E28 [5], 111.1 nM | – | 0.967
E28 [5], 333.3 nM | – | 1.06
E28 [5], 1000 nM | – | 0.92
E28 [5], 3000 nM | – | 0.901
E28 [12], 4.1 nM | 1.02 | –
E28 [12], 12.3 nM | 0.39 | –
E28 [12], 37 nM | 0.547 | –
E28 [12], 111.1 nM | 0.548 | –
E28 [12], 333.3 nM | 0.562 | –
E28 [12], 1000 nM | 1.03 | –
E28 [12], 3000 nM | 0.857 | –
E31 [6], 4.1 nM | – | 0.989
E31 [6], 12.3 nM | – | 0.923
E31 [6], 37 nM | – | 0.848
E31 [6], 111.1 nM | – | 0.934
E31 [6], 333.3 nM | – | 1.03
E31 [6], 1000 nM | – | 0.955
E31 [6], 3000 nM | – | 0.809
E31 [13], 4.1 nM | 0.829 | –
E31 [13], 12.3 nM | 0.483 | –
E31 [13], 37 nM | 1.07 | –
E31 [13], 111.1 nM | 0.701 | –
E31 [13], 333.3 nM | 0.894 | –
E31 [13], 1000 nM | 0.819 | –
E31 [13], 3000 nM | 1.06 | –
E34 [2], 4.1 nM | – | 0.771
E34 [2], 12.3 nM | – | 1.01
E34 [2], 37 nM | – | 1.04
E34 [2], 111.1 nM | – | 1.06
E34 [2], 333.3 nM | – | 0.935
E34 [2], 1000 nM | – | 0.918
E34 [2], 3000 nM | – | 0.892
E34 [9], 4.1 nM | 1.2 | –
E34 [9], 12.3 nM | 0.513 | –
E34 [9], 37 nM | 1.59 | –
E34 [9], 111.1 nM | 0.677 | –
E34 [9], 333.3 nM | 0.562 | –
E34 [9], 1000 nM | 0.954 | –
E34 [9], 3000 nM | 0.563 | –
E57 [1], 4.1 nM | – | 1.08
E57 [1], 12.3 nM | – | 1.09
E57 [1], 37 nM | – | 1.02
E57 [1], 111.1 nM | – | 1.07
E57 [1], 333.3 nM | – | 1.03
E57 [1], 1000 nM | – | 0.983
E57 [1], 3000 nM | – | 1.02
E57 [8], 4.1 nM | 0.94 | –
E57 [8], 12.3 nM | 1.02 | –
E57 [8], 37 nM | 1.11 | –
E57 [8], 111.1 nM | 1.36 | –
E57 [8], 333.3 nM | 0.492 | –
E57 [8], 1000 nM | 0.718 | –
E57 [8], 3000 nM | 0.744 | –
FT3469 [7], 4.1 nM | – | 1.01
FT3469 [7], 12.3 nM | – | 1.07
FT3469 [7], 37 nM | – | 0.881
FT3469 [7], 111.1 nM | – | 1.12
FT3469 [7], 333.3 nM | – | 0.823
FT3469 [7], 1000 nM | – | 0.849
FT3469 [7], 3000 nM | – | 0.771
FT3469 [14], 4.1 nM | 1.4 | –
FT3469 [14], 12.3 nM | 0.712 | –
FT3469 [14], 37 nM | 1.02 | –
FT3469 [14], 111.1 nM | 0.751 | –
FT3469 [14], 333.3 nM | 0.862 | –
FT3469 [14], 1000 nM | 0.691 | –
FT3469 [14], 3000 nM | 0.764 | –

CCCSc1ccc2[nH]c(NC(=O)OC)nc2c1 [Albendazole]
Details | phenotypic distance | surviving fraction
E13 [4], 4.1 nM | – | 0.787
E13 [4], 12.3 nM | – | 0.877
E13 [4], 37 nM | – | 0.931
E13 [4], 111.1 nM | – | 0.655
E13 [4], 333.3 nM | – | 0.439
E13 [4], 1000 nM | – | 0.373
E13 [4], 3000 nM | – | 0.222
E13 [11], 4.1 nM | 1.01 | –
E13 [11], 12.3 nM | 0.56 | –
E13 [11], 37 nM | 0.737 | –
E13 [11], 111.1 nM | 2.95 | –
E13 [11], 333.3 nM | 4.43 | –
E13 [11], 1000 nM | 4.68 | –
E13 [11], 3000 nM | 7.36 | –
E21 [3], 4.1 nM | – | 0.887
E21 [3], 12.3 nM | – | 0.807
E21 [3], 37 nM | – | 0.834
E21 [3], 111.1 nM | – | 0.804
E21 [3], 333.3 nM | – | 0.755
E21 [3], 1000 nM | – | 0.169
E21 [3], 3000 nM | – | 0.118
E21 [10], 4.1 nM | 1.02 | –
E21 [10], 12.3 nM | 0.918 | –
E21 [10], 37 nM | 1.01 | –
E21 [10], 111.1 nM | 1.35 | –
E21 [10], 333.3 nM | 3.4 | –
E21 [10], 1000 nM | 7.12 | –
E21 [10], 3000 nM | 8.62 | –
E28 [5], 4.1 nM | – | 0.86
E28 [5], 12.3 nM | – | 0.988
E28 [5], 37 nM | – | 0.734
E28 [5], 111.1 nM | – | 1.04
E28 [5], 333.3 nM | – | 0.719
E28 [5], 1000 nM | – | 0.536
E28 [5], 3000 nM | – | 0.28
E28 [12], 4.1 nM | 0.748 | –
E28 [12], 12.3 nM | 0.904 | –
E28 [12], 37 nM | 0.875 | –
E28 [12], 111.1 nM | 1.25 | –
E28 [12], 333.3 nM | 2.28 | –
E28 [12], 1000 nM | 3.22 | –
E28 [12], 3000 nM | 3.85 | –
E31 [6], 4.1 nM | – | 0.993
E31 [6], 12.3 nM | – | 0.833
E31 [6], 37 nM | – | 0.874
E31 [6], 111.1 nM | – | 0.758
E31 [6], 333.3 nM | – | 0.408
E31 [6], 1000 nM | – | 0.186
E31 [6], 3000 nM | – | 0.0928
E31 [13], 4.1 nM | 0.384 | –
E31 [13], 12.3 nM | 0.712 | –
E31 [13], 37 nM | 0.564 | –
E31 [13], 111.1 nM | 1.13 | –
E31 [13], 333.3 nM | 3.4 | –
E31 [13], 1000 nM | 5.94 | –
E31 [13], 3000 nM | 5.22 | –
E34 [2], 4.1 nM | – | 0.934
E34 [2], 12.3 nM | – | 1.06
E34 [2], 37 nM | – | 0.937
E34 [2], 111.1 nM | – | 0.927
E34 [2], 333.3 nM | – | 0.656
E34 [2], 1000 nM | – | 0.476
E34 [2], 3000 nM | – | 0.439
E34 [9], 4.1 nM | 0.51 | –
E34 [9], 12.3 nM | 1.47 | –
E34 [9], 37 nM | 1.32 | –
E34 [9], 111.1 nM | 0.857 | –
E34 [9], 333.3 nM | 2.54 | –
E34 [9], 1000 nM | 3.76 | –
E34 [9], 3000 nM | 5.5 | –
E57 [1], 4.1 nM | – | 1.02
E57 [1], 12.3 nM | – | 0.99
E57 [1], 37 nM | – | 0.873
E57 [1], 111.1 nM | – | 0.909
E57 [1], 333.3 nM | – | 0.715
E57 [1], 1000 nM | – | 0.257
E57 [1], 3000 nM | – | 0.0825
E57 [8], 4.1 nM | 0.729 | –
E57 [8], 12.3 nM | 1.11 | –
E57 [8], 37 nM | 0.859 | –
E57 [8], 111.1 nM | 1.5 | –
E57 [8], 333.3 nM | 3.52 | –
E57 [8], 1000 nM | 5.59 | –
E57 [8], 3000 nM | 4.71 | –
FT3469 [7], 4.1 nM | – | 0.783
FT3469 [7], 12.3 nM | – | 0.812
FT3469 [7], 37 nM | – | 0.76
FT3469 [7], 111.1 nM | – | 0.924
FT3469 [7], 333.3 nM | – | 0.725
FT3469 [7], 1000 nM | – | 0.662
FT3469 [7], 3000 nM | – | 0.504
FT3469 [14], 4.1 nM | 0.912 | –
FT3469 [14], 12.3 nM | 1.05 | –
FT3469 [14], 37 nM | 0.721 | –
FT3469 [14], 111.1 nM | 1.33 | –
FT3469 [14], 333.3 nM | 2.27 | –
FT3469 [14], 1000 nM | 3.43 | –
FT3469 [14], 3000 nM | 3.98 | –
